Each block holds one molecule with its values, some of them ahead of it.
What was measured:
Format in all cases: biochemical
recombinant human MGAT3 = biological target: T1, recombinant human MGAT3 (Homo sapiens, UniProt Q86VF5); test: Substrate concentration titration and substrate specificity in the MGAT enzyme assay; settings: for optimal substrate concentration: 10 μg membrane fractions, 10 min at 37° C.; for substrate optimum for acyl-CoAs: acyl-CoAs at 50 μM, 200 μM sn-2-[3H]monooleoylglycerol tracer
T1 construct: predicted to contain the entire open reading frame, was chosen for further study; made in house; host or cells: Spodoptera frugiperda Sf9 insect cells (baculovirus, Bac-to-Bac); 100,000 x g membrane fractions
T1 sequence (Q86VF5 1-341): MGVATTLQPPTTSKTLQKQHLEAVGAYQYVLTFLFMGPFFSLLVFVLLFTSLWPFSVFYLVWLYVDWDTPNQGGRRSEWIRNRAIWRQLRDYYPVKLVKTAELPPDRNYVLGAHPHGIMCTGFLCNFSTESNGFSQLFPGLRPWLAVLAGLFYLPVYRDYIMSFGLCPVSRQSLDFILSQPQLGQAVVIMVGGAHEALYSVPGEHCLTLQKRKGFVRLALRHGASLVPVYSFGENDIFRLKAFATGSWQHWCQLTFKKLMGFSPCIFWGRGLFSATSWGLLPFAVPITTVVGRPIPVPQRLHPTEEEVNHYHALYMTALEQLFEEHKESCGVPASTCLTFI
Method: Sf9 cells were setup and infected with either wild type or recombinant MGAT3 viruses as in FIG. 4. After 2 days of infection, the cells were harvested, membrane fractions were prepared and aliquots of membranes were subjected to MGAT enzyme assays with various concentrations of substrates. For A, 200 μM sn-2-monooleoylglycerol and various amounts of [14C]oleoyl coenzyme A (20,000 dpm/nmol) and for B, 50 μM [14C]oleoyl coenzyme A (20,000 dpm/nmol) and various amounts of sn-2-monooleoylglycerol were incubated with 10 μg membrane fractions for 10 min at 37° C. Lipid bands corresponding to TAG and DAG were cut from TLC sheets and counted with scintillation counter. Activities were corrected values of recombinant membranes deducted by values of wild type membranes. Duplicated assays were conducted and the standard deviations were smaller than 10% of the mean.
Sf9 cells were setup and infected either with wild type, recombinant MGAT3 or with DGAT2 viruses as in FIG. 4. Aliquots of membrane fractions (10 μg) were subjected to MGAT assays to determine A) MAG stereoisomer specificity and B) preference of fatty acyl-CoAs. In A, 50 μM [14C]oleoyl coenzyme A (20,000 dpm/nmol) and 200 μM of sn-1-monooleoyglycerol (1-MAG), sn-2-monooleoyglycerol (2-MAG), or […] (3-MAG); and in B, 200 μM sn-2-[3H]monooleoylglycerol (20,000 dpm/nmol) and different acyl-CoAs at 50 μM were incubated with 10 μg membrane fractions at 37° C. for 10 min. C2, acetyl-CoA; M, malonyl-CoA; C4:0, butyryl-CoA; C12:0, lauroyl-CoA; C16:0, palmitoyl-CoA; C18:0, stearoyl-CoA; C20:0, arachidoyl-CoA; C18:1, oleoyl-CoA; C18:2, linoleoyl-CoA; C20:4, arachidonoyl-CoA.
MGAT activities were assayed for 5-10 min at 37° C. in a final volume of 200 μl according to a protocol modified from Coleman (Coleman, R. A. (1992) Methods Enzymol. 209:98-104). Each reaction contained 10 μg of membrane proteins in Assay Buffer (100 mM Tris-HCl, pH7.5, 5 mM MgCl2, 1.25 mg/ml BSA, 250 mM sucrose, 800 μM phophatidylcholine liposomes). Generally, 50 μM of acyl coenzyme A and 200 μM sn-2-monoacylglycerol (delivered in acetone, final acetone concentration <2%) were used. Reactions were started by adding protein and terminated by adding 4 ml chloroform/methanol (2/1, v/v). The extracted lipids were dried, separated by thin layer chromatography (TLC) with hexane/ethyl ether/acetic acid (85/15/0.5, v/v/v).
Identities of triacylglycerol (TAG), diacylglycerol (DAG), monoacylglycerol (MAG), free fatty acid (FFA) and other lipids were verified with lipid standards (Sigma) after staining with iodine vapor. The specific enzyme activities were traced by measuring the incorporation of [14C]oleoyl-CoA (20,000 dpm/nmol) or sn-2-[3H] monooleolyglycerol (20,000 dpm/nmol). Chromatograms were also analyzed with STORM PhosphoImager.

[1] = DGAT activity: exogenous DAG assayed directly with recombinant membranes (TLC); settings: Sf9 membranes, [14C]oleoyl-CoA tracer
[2] = MGAT enzyme assay (TLC, scintillation counting) of membranes from Sf9 cells expressing the recombinant enzyme; settings: 50 μM [14C]oleoyl coenzyme A
Method: Sf9 cells were setup and infected with wild type or recombinant MGAT3 viruses as in FIG. 4. Membrane extracts were prepared from the cells with various post infection times. Aliquots of membrane fractions were either subjected to A) immunoblot analysis with anti-FLAG IgG; or to B) TLC enzyme assays. For substrates, 200 μM sn-2-monooleoylglycerol and 50 μM [14C]oleoyl coenzyme A (20,000 dpm/nmol) were incubated with 10 μg membrane fractions for 6 min at 37° C. After TLC separation, the DAG and the TAG bands were cut from TLC sheets and subjected to scintillation counting. The activities were expressed as nmol/min/mg protein. Values were averages of duplicated determinations and the standard deviations were smaller than 10% of the mean.
The predicted coding sequence of human MGAT3 was fused with an NH2-terminal FLAG epitope (MGDYKDDDDG, (SEQ ID NO:21) epitope underlined) and expressed in Spodoptera frugiperda (Sf9) insect cells using Bac-to-Bac™ kit (Life Technologies) according to manufacturer's instructions. Recombinant FLAG-human-DGAT2 was expressed in the same manner as a control. Generally, cells were infected with viruses (MOI>3) for 2 days. After harvest, cells were washed with PBS, and then homogenized with a probe sonicator in Homogenization Buffer (10 mM Tris-HCl, pH 7.4, 250 mM sucrose, 1× Protease Inhibitor Cocktail [Roche]). Membrane fractions (100,000×g pellets) were stored at −80° C. until use for enzymatic assays. For immunoblot analysis, aliquots of 2 μg of membrane proteins were loaded on SDS-PAGE and probed with an anti-FLAG M2 IgG (Sigma).
MGAT activities were assayed for 5-10 min at 37° C. in a final volume of 200 μl according to a protocol modified from Coleman (Coleman, R. A. (1992) Methods Enzymol. 209:98-104). […]
Identities of triacylglycerol (TAG), diacylglycerol (DAG), monoacylglycerol (MAG), free fatty acid (FFA) and other lipids were verified with lipid standards (Sigma) after staining with iodine vapor. […] Chromatograms were also analyzed with STORM PhosphoImager.

[3] = Sf9 cell membranes, 200 μM sn-2-monooleoylglycerol, 6 min at 37° C., highest value of time course

Molecule: CCCCCCCC/C=C\CCCCCCCC(=O)OC(CO)CO [2-monooleoylglycerol, sn-2-monooleoylglycerol]
optimal substrate concentration (recombinant human MGAT3): 200 µM
MAG stereoisomer specificity (DAG synthesis) (recombinant human MGAT3; 200 μM MAG, 50 μM [14C]oleoyl coenzyme A): prefers 2-MAG as the substrate

B1: MGAT3: monoacylglycerol acyltransferase-3, 341 amino acid protein of SEQ ID NO:2 (protein, listed as Homo Sapiens)
chain: T1 sequence (Q86VF5 1-341)
acylation of exogenous DAG to TAG (DGAT activity) [1]: able to acylate DAG to form TAG directly
specific activity for DAG [2, 3]: 22.8 nmol/min/mg
specific activity for TAG [2, 3]: 9.3 nmol/min/mg

B2: DGAT2: recombinant human diacylglycerol acyltransferase 2 expressed in the same manner as a control (protein, listed as Homo Sapiens)
chain: MKTLIAAYSGVLRGERQAEADRSQRSHGGPALSREGSGRWGTGSSILSALQDLFSVTWLNRSKVEKQLQVISVLQWVLSFLVLGVACSAILMYIFCTDCWLIAVLYFTWLVFDWNTPKKGGRRSQWVRNWAVWRYFRDYFPIQLVKTHNLLTTRNYIFGYHPHGIMGLGAFCNFSTEATEVSKKFPGIRPYLATLAGNFRMPVLREYLMSGGICPVSRDTIDYLLSKNGSGNAIIIVVGGAAESLSSMPGKNAVTLRNRKGFVKLALRHGADLVPIYSFGENEVYKQVIFEEGSWGRWVQKKFQKYIGFAPCIFHGRGLFSSDTWGLVPYSKPITTVVGEPITIPKLEHPTQQDIDLYHTMYMEALVKLFDKHKTKFGLPETEVLEVN
modifications: FLAG tag
notes: recombinant human diacylglycerol acyltransferase 2 expressed in the same manner as a control
TAG synthesis from MAG stereoisomers ([2]; Sf9 membranes, 1-MAG, 2-MAG or 3-MAG at 200 μM): able to synthesize similar amount of TAG using three different MAG stereoisomers

Other lines, results leading:

optimal substrate concentration (recombinant human MGAT3): 50 µM
substrate optimum for acyl-CoAs (recombinant human MGAT3): best substrates
Molecule: CCCCCCCC/C=C\CCCCCCCC(=O)SCCNC(=O)CCNC(=O)[C@H](O)C(C)(C)COP(=O)(O)OP(=O)(O)OC[C@H]1O[C@@H](n2cnc3c(N)ncnc32)[C@H](O)[C@@H]1OP(=O)(O)O [oleoyl-CoA]

substrate optimum for acyl-CoAs (recombinant human MGAT3): best substrates
Molecule: CCCCCCCCCCCCCCCC(=O)SCCNC(=O)CCNC(=O)[C@H](O)C(C)(C)COP(=O)(O)OP(=O)(O)OC[C@H]1O[C@@H](n2cnc3c(N)ncnc32)[C@H](O)[C@@H]1OP(=O)(O)O [palmitoyl-CoA]
